Assay results: patent publication US4654368A, “Tri-organotin silatrane derivatives and pesticidal compositions, fungicides or antifouling agents comprising said compounds as active ingredients” (Nitto Kasei Co., Ltd., priority 1984, dated 1987)

Key:
[1] = tested on: tobacco cutworms (Prodenia litura Fabrficius); experiment: Test on insecticidal efficacy on tobacco cutworms; assay type: in vivo; details: 500 ppm in artificial feed, 4th-instar larvae, 6 days; wettable powder of Formulation Example 5 (contains Fenitrothion)
Experimental: A wettable powder of each of compounds Nos. 3, 7, 8, 9, 11, 12, 13, 14, 17, 18 and 31 of the invention obtained in accordance with Formulation Example 5 was diluted with water to 200 times (corresponding to a concentration of 500 ppm). Two milliliters of the dilution was impregnated in 13 g of an artificial feed for tobacco cutworms, and the feed was put in a polyethylene cup having a diameter of 11 cm. Ten 4th-instar larvae of tobacco cutworms were released into the cup, and examined for mortality 6 days later. The above experiment was carried out through two replicates.

Culex pipiens = experiment: Test on insecticidal effect on Culex pipiens; assay type: in vivo; details: 3.5 ppm, wettable powder of Formulation Example 5 (contains Fenitrothion)
Experimental: A wettable powder of each of compounds Nos. 2, 7, 8, 11, 13, 14, 17, 18 and 31 obtained in accordance with Formulation Example 5 was diluted with water to 3.5 ppm. One hundred milliliters of the dilution was put in each of 180 ml. polyethylene cups and 20 final-instar larvae of Culex pipiens were released into the cup. On the next day, the larvae were examined for mortality.
Thereafter, feeds were added to the test areas, and when all larvae n the non-treated area emerged, the emergence inhibition rate was examined.
The death rate and the emergence inhibition rate were rated by three grades as follows: […]

[2] = tested on: Penicillium citrinum ATCC 9849; experiment: Test on fungicidal effect on fungi (agar medium diluting method); assay type: cell-based; details: PDA, 27° C., cultivation period 4 days
Experimental: (§1) By an agar medium diluting method, the fungicidal activities of compounds Nos. 12, 17, 18, 23, 24, 26, 27 and 32 of the invention on fungi doing harm to industrial products and materials were examined.
(§2) A hypha piece, 5 mm in diameter, of each of the fungi indicated in Table 3 was inoculated in a potato dextrose agar medium (PDA) containing each of the above compounds, and cultivated at 27° C. After the lapse of a predetermined period, the growth state of the fungus was observed, and the minimum inhibitory concentration of the compound was determined.

[3] = tested on: Cladosporium herbarum TAMF 517; experiment: as above; assay type: cell-based; details: PDA, 27° C., cultivation period 4 days
Experimental: as §1, §2

[4] = tested on: Caetomium globosum ATCC 6205; experiment: as above; assay type: cell-based; details: PDA, 27° C., cultivation period 3 days (compound 18: 4 days)
Experimental: as §1, §2

[5] = tested on: Aspergillus niger ATCC 6275; experiment: as above; assay type: cell-based; details: PDA, 27° C., cultivation period 4 days
Experimental: as §1, §2

[6] = tested on: marine animals and plants; experiment: Test on antifouling effects on marine animals and plants in the sea; assay type: in vivo; details: antifouling paint on vinyl chloride plate, Owase Bay
Experimental: A ship bottom antifouling paint was prepared by adding 24 g of Rosin WW, 12 g of a vinyl copolymer, 4 g of tricresyl phosphate, 10 g of bentonite, 20 g of baryta, 20 g of red iron oxide, 35 g of xylene and 35 g of methyl isobutyl ketone to 40 g of each of compounds Nos. 2, 8, 14, 17, 20 and 32 of the invention and vigorously stirring the mixture at room temperature for 1 hour. The paint was coated on both surfaces of a rigid vinyl chloride resin plate, 17×9×0.3 cm in size, to a dry thickness of about 200 microns. The coated plate was submerged in the sea in Owase Bay, Mie Prefecture, Japan for 12 months, and its fouled state was regularly observed.
The symbols in the table show the following.

With `CC[CH2][Sn]([CH2]CC)([CH2]CC)[S]CCC[Si]12OCCN(CCO1)CCO2` [compound 17] the Death rate [1] was 100%, the Death rate (Culex pipiens; final-instar larvae, next day, 1440 min) was “C (less than 10%)” and the Emergence inhibition rate (Culex pipiens; when all larvae in non-treated area emerged) was “A (90% or higher)”. It also gave a Minimum inhibitory concentration [2] of less than 2.5 ppm, a Minimum inhibitory concentration [3] of less than 12.5 ppm and a Minimum inhibitory concentration [4] of less than 2.5 ppm. The Minimum inhibitory concentration [5] was less than 2.5 ppm, the “Fouled state, period of submerging 4 months” value ([6]; 4 months) was “.circle” and the “Fouled state, period of submerging 8 months” value ([6]; 8 months) was “.circle”. The “Fouled state, period of submerging 12 months” value ([6]; 12 months) was “.circle”.
